{
  "source": "patent US6947790B2",
  "about": "“Neurocognitive function EEG measurement method and system” (priority 2000, dated 2005)",
  "key": {"[1]": {"system": "healthy subjects", "test": "Experiment 5: subjective scales after alprazolam", "experimental": "(§1) Experiment: The motivation behind this experiment was to evaluate whether EEG and/or behavioral indices could be used to detect cognitive side effects of a common psychiatric medication. […] It acts primarily on the GABAergic system, enhancing the inhibitory effects of this neurotransmitter. […] It adversely affects memory functions and psychomotor performance following acute administration, and its CNS effects can be detected in EEG measures. […] The experiment was performed according to a double blind, fully counterbalanced design, and all participation was fully informed and voluntary.\n(§2) They then participated in three sessions: a training session and two experimental sessions. In the initial session, following informed consent procedures, subjects were familiarized with the recording methods and apparatus, and given a sham (placebo) drug dose. They then practiced the tasks until performance levels reached asymptote. […] Each session consisted of a pre-drug baseline-recording interval, followed by five post-drug recording intervals extending to 5 hours after drug administration. In the pre-drug interval and in each of the post-drug intervals EEG was recorded while subjects performed computer-presented tasks and while they rested quietly. The computerized tasks included easy and difficult versions of a sustained attention working memory task, where difficulty was manipulated by varying working memory load. Subjective scales were also used to assess drowsiness, mood, and perceived drug effects. The entire procedure, including preparation time and rest breaks lasted approximately 7 hours. Transportation home was provided for the subjects at the end of each experimental session."}, "[2]": {"system": "healthy subjects", "test": "Experiment 5: working memory task performance", "experimental": "as §1, §2"}, "[3]": {"system": "healthy subjects", "test": "Experiment 5: resting and task-related EEG and ERP", "format": "in vivo, human", "experimental": "as §1, §2"}, "[4]": {"system": "healthy subjects", "test": "Experiment 5: NCFC index", "format": "in vivo, human", "details": "FIG. 11", "from_the_text": "The resulting function is structured such that improvement in cognitive function in response to some intervention results in a positive deviation of the index, and impairment in cognitive function in response to some intervention results in a negative deviation of the index. […] In the first and second periods following drug ingestion the change in index values were highly significant across the group of subjects (t(9)=−4.02, p<0.004 and t(9)=−3.54, p<0.007 for t1 and t2 respectively), with some recovery in the later test periods (p's<0.05 for the rest of the test session)."}, "[5]": {"details": "in vivo; cited from earlier work"}, "[6]": {"system": "healthy adults", "test": "Chronic AED administration study: NCFC", "format": "in vivo, human", "details": "one subject, after 30 days of chronic treatment, FIG. 14", "from_the_text": "In Progress Study of Effects of Chronic AED Administration. Although their mechanisms of action are varied and incompletely understood, AEDs as a class tend to limit sustained repetitive firing of neurons by antagonizing mechanisms of excitation or by agonizing mechanisms of inhibition. It is likely that such effects have a measurable influence on task-related EEG or ERP parameters. Such biomarkers are being identified through exploratory analyses of data from subjects taking AEDs for 4 weeks. The study, which is being performed by Drs. F. Gilliam and K. Meador, is a randomized, double blind, crossover comparison of the cognitive and behavioral effects of chronic administration of the AEDs lamotrigine and topiramate in healthy adults. Lamotrigine and topiramate are newer AEDs that have been reported to differ in their cognitive side effects.\nThe study is designed such that subjects are randomized in a first treatment period to receive either lamotrigine or topiramate for 12 weeks (7 weeks of dose escalation followed by 4 weeks of maintenance therapy and then 1 week of tapering off the drug). […] In each test session, subjects have their EEG recorded from 8 scalp electrodes (positioned at AFz, F3, F4, C3, C4, Pz, PO3, PO4) and their EOG recorded from electrodes placed on the supraorbital ridge and outer canthus of each eye, while they perform the WM task and while they rest quietly."}, "[7]": {"test": "Experiment 6: phenytoin blood serum levels", "format": "in vivo", "details": "human, oral, 10 mg/kg bodyweight, 5 hrs after 10 mg/kg bodyweight"}, "[8]": {"system": "healthy normal subjects", "test": "Experiment 6: subjective scales after phenytoin", "format": "in vivo, human", "experimental": "Experiment: The motivation behind this experiment was to evaluate how EEG and behavioral indices might be used to detect mild cognitive side effects of neurological medications, such as anti-epileptic drugs (AEDs). […] The computerized tasks included a simple reaction time task and easy and difficult versions of the sustained attention WM task, in which difficulty was manipulated by varying WM load. Subjective scales were also administered to assess drowsiness, mood, and perceived drug effects. […] Transportation home was provided at the end of the sessions."}, "[9]": {"system": "healthy normal subjects", "test": "Experiment 6: resting and task-related EEG and ERP", "format": "in vivo, human", "experimental": "The computerized tasks included a simple reaction time task and easy and difficult versions of the sustained attention WM task, in which difficulty was manipulated by varying WM load. Subjective scales were also administered to assess drowsiness, mood, and perceived drug effects. […] Transportation home was provided at the end of the sessions. Neurophysiological Alertness: To examine whether there was any neurophysiological evidence for decreased alertness, the EEG data were processed to eliminate artifacts and to compute power spectra and ERPs in each test condition. […] These physiological changes are consistent with the subjective reports of increased drowsiness following phenytoin."}, "[10]": {"system": "healthy normal subjects", "test": "Experiment 6: task performance", "design": "species or system human", "details": "in vivo", "experimental": "The computerized tasks included a simple reaction time task and easy and difficult versions of the sustained attention WM task, in which difficulty was manipulated by varying WM load. Subjective scales were also administered to assess drowsiness, mood, and perceived drug effects. […] Transportation home was provided at the end of the sessions."}, "[11]": {"details": "blood serum; cited from earlier work"}, "[12]": {"system": "healthy normal subjects", "test": "Experiment 6: NCFC index", "quoted_text": "Neurocognitive Function Change Index: The hybrid multivariate function for assessing changes in neurocognitive function described in Experiment 2 was also applied to this dataset, computing degree of neurocognitive change from an average of the placebo test sessions. The resulting index scores were then computed as deviations from the pre-drug test administration index score to illustrate how neurocognitive function varied over the phenytoin test session."}, "[13]": {"system": "healthy adults", "details": "as reported for these AEDs; cited from earlier work"}},
  "note": "Read-outs that look alike come from different tables or passages of the source.",
  "data": [
    {"smiles": "Cc1nnc2n1-c1ccc(Cl)cc1C(c1ccccc1)=NC2", "note": "[alprazolam]", "values": [
      {"measurement": "Other subjective effects vs placebo", "setting": "[1]; 1 mg alprazolam", "value": "significantly more sleepy, more “spacey/out of it”, and more clumsy"},
      {"measurement": "Visual analogue scale: feel the effects of the drug, vs placebo", "setting": "[1]; 1 mg alprazolam", "value": "heightened sense that they could “feel the effects of the drug”"},
      {"measurement": "Onset of felt drug effects", "setting": "[1]; after drug ingestion", "value": 0.5, "unit": "h"},
      {"measurement": "Peak of felt drug effects", "setting": "[1]; after drug ingestion", "value": "1.5 to 2", "unit": "h"},
      {"measurement": "Time of largest effect on behavioral performance", "setting": "[2]; after drug ingestion", "value": "0.5 to 1", "unit": "h"},
      {"measurement": "Accuracy in working memory task vs placebo", "setting": "[2]; easy and difficult level", "value": "less accurate"},
      {"measurement": "Response speed in working memory task vs placebo", "setting": "[2]; easy and difficult level", "value": "significantly slower"},
      {"measurement": "Time of behavior returning towards baseline levels", "setting": "[2]; post drug ingestion", "value": "3.5 to 4", "unit": "h"},
      {"measurement": "P300 amplitude vs placebo", "setting": "[3]; difficult task level", "value": "significantly reduced P300 amplitude"},
      {"measurement": "Resting beta power vs placebo", "setting": "[3]; eyes closed state", "value": "highly significant increase in beta power"},
      {"measurement": "Resting theta power vs placebo", "setting": "[3]; eyes closed state", "value": "did not affect theta power in the eyes closed state"},
      {"measurement": "Resting alpha power vs placebo", "setting": "[3]; eyes open and eyes closed states", "value": "significantly reduced alpha power in both eyes open and eyes closed states"},
      {"measurement": "Resting beta power vs placebo", "setting": "[3]; eyes open state", "value": "same pattern of enhancement after drug ingestion, but to a lesser extent than in the eyes closed state"},
      {"measurement": "Resting theta power vs placebo", "setting": "[3]; eyes open state", "value": "significant decrease in theta power in the eyes open state"},
      {"measurement": "Task-related beta power vs placebo", "setting": "[3]; in vivo", "value": "significantly larger on the alprazolam day than on the placebo day"},
      {"measurement": "Task-related frontal midline theta vs placebo", "setting": "[3]; in vivo", "value": "significantly attenuated"},
      {"measurement": "Task-related slow and fast alpha signals vs placebo", "setting": "[3]; in vivo", "value": "significantly attenuated"},
      {"measurement": "P300 amplitude vs placebo", "setting": "[3]; low load task level and simple reaction time task", "value": "did not significantly differ between placebo and alprazolam conditions"},
      {"measurement": "Pharmacodynamic profile: onset of cognitive impairment", "setting": "[4]", "value": "rapid and relatively severe"},
      {"measurement": "Tpeak", "setting": "[5]", "value": "1 to 2", "unit": "h"},
      {"measurement": "plasma half-life", "setting": "[5]", "value": "6 to 16", "unit": "h"}
    ]},
    {"smiles": "Nc1nnc(-c2cccc(Cl)c2Cl)c(N)n1", "note": "[lamotrigine]", "values": [
      {"measurement": "NCFC scores relative to pre-treatment baseline", "setting": "[6]", "value": "impaired neurocognitive function was observed in response to both drugs"}
    ]},
    {"smiles": "O=C1NC(=O)C(c2ccccc2)(c2ccccc2)N1", "note": "[phenytoin]", "values": [
      {"measurement": "concentration at 5 h", "setting": "[7]; read-out: blood serum level range", "value": "3500 to 13600", "unit": "ng/mL"},
      {"measurement": "concentration at 5 h", "setting": "[7]; read-out: mean blood serum level", "value": 9000, "unit": "ng/mL"},
      {"measurement": "Visual analogue scale: feel the effects of the drug, vs placebo", "setting": "[8]; 10 mg/kg phenytoin", "value": "heightened sense that they could “feel the effects of the drug”"},
      {"measurement": "Time of strongest sensations", "setting": "[8]; after drug administration", "value": "about 4 hours"},
      {"measurement": "Subjective sleepiness vs placebo", "setting": "[8]; in vivo", "value": "marginally more sleepy"},
      {"measurement": "Attention-related enhancement of N160 response to target stimuli", "setting": "[9]; easy level of the task", "value": "significantly reduced in the phenytoin condition"},
      {"measurement": "Resting alpha band power vs placebo", "setting": "[9]; eyes-closed", "value": "decrease in power in the 9-11 Hz (alpha band) frequency range"},
      {"measurement": "Resting theta band power vs placebo", "setting": "[9]; eyes-closed, parieto-occipital electrodes", "value": "small increase in power in the 3-6 Hz (theta band) frequency range"},
      {"measurement": "Effects on centroparietal P300 component", "setting": "[9]; in vivo", "value": "heterogeneous"},
      {"measurement": "Difficulty-related enhancement of frontal midline theta signal", "setting": "[9]; low load vs high load WM task", "value": "reduced the difficulty-related enhancement of the frontal midline theta signal"},
      {"measurement": "Accuracy and reaction time during task performance vs placebo", "setting": "[10]", "value": "neither accuracy nor reaction time during task performance differed on average"},
      {"measurement": "therapeutic range", "setting": "[11]", "value": "10 to 20", "unit": "µg/mL"},
      {"measurement": "Pharmacodynamic profile: onset of cognitive impairment", "setting": "[12]; FIG. 12", "value": "slower to develop and relatively mild"},
      {"measurement": "Period of acute impairment in individual subjects", "setting": "[12]; following drug ingestion", "value": "2 to 4", "unit": "h"},
      {"measurement": "Average NCFC index scores", "setting": "[12]; relative to pre-treatment baseline", "value": "tended to decline relative to the pre-treatment baseline interval"}
    ]},
    {"smiles": "CC1(C)O[C@@H]2[C@@H](CO[C@@]3(COS(N)(=O)=O)OC(C)(C)O[C@@H]23)O1", "note": "[topiramate]", "values": [
      {"measurement": "NCFC scores relative to pre-treatment baseline", "setting": "[6]", "value": "impaired neurocognitive function was observed in response to both drugs"},
      {"measurement": "Cognitive side effect profile", "setting": "[13]", "value": "relatively worse cognitive side effect profile than lamotrigine"}
    ]}
  ]
}
